{"source": "paper PMC12769565", "about": "“Design, synthesis and biological activity of glycoconjugated ADAMTS5 exosite inhibitors: applications in osteoarthritis and ovarian cancer models” (Scientific Reports, 2025)", "key": {"[1]": {"target": "T1, ADAMTS5 (Homo sapiens, UniProt Q9UNA0)", "T1 construct": "Human recombinant full-length FLAG-tagged ADAMTS4 and ADAMTS5 were expressed in HEK293T cells; FLAG; made in house; host or cells: HEK293T cells", "T1 sequence (Q9UNA0 262-930)": "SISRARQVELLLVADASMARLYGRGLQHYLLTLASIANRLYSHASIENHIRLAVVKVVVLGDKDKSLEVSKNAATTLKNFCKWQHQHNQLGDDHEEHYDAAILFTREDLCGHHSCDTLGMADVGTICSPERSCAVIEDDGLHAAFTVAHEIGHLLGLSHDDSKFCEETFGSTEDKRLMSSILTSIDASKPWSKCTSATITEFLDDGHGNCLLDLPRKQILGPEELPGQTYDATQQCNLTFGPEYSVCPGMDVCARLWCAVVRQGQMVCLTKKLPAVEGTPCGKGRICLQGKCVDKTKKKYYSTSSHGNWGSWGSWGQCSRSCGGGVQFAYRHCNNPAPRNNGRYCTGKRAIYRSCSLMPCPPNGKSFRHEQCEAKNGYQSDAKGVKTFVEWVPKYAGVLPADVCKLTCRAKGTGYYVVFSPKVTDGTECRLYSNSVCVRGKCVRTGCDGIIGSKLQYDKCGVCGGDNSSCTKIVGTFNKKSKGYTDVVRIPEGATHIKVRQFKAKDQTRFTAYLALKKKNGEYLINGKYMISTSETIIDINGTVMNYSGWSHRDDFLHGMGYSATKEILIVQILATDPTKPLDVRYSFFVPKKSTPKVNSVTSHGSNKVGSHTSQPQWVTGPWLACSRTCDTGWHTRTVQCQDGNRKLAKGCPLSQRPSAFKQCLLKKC", "test": "Aggrecanase assay (bovine aggrecan, anti-ARGSV neoepitope immunoblot)", "format": "biochemical", "protocol": "Aggrecanase assays were carried out as before. ADAMTS5 (1 nM) was incubated with compounds 2 and 3 or DMSO for 2 h at 37 °C in TNC-B buffer before addition of bovine articular aggrecan (UniProt ID: P13608, 270 nM) (Merck, A1960). After 2 h digestion at 37 °C, the reactions were stopped with ethylenediaminetetraacetic acid and the samples incubated with 0.1 U/ml of chondroitinase ABC (AMS Biotechnology, Abingdon, UK) and keratanase (endo-beta galactosidase, Merck, G6920) in deglycosylation buffer (50 mM sodium acetate, 25 mM Tris HCl pH 8.0) for 16 h at 37 °C to remove GAG chains.\nSamples were separated by SDS-PAGE under reducing conditions (5% β-mercaptoethanol) on BOLT, 4–12%, Bis-Tris Gels (Invitrogen) in MES Running Buffer (NuPAGE). Proteins were transferred onto a nitrocellulose membrane using Trans-Blot Turbo™ Transfer System (BioRad), at 25 V, 2.5 A for 30 min. Membranes were blocked with 3% BSA/PBS for 1 h at room temperature. Aggrecan fragments generated by ADAMTS cleavage at E^392-A^393[8] or E^1953-A^1954[68] were detected using mouse monoclonal anti-ARGSV antibody (BC3, Life Technologies, MA3-16888, 4 µg/ml) or polyclonal anti-AGEG neoepitope antibody (serum, 1:200 dilution)[12],[33], respectively, followed by the appropriate horseradish peroxidase (HRP)-conjugated secondary antibodies (polyclonal Goat Anti-Mouse P0447, 0.1 ng/µl and polyclonal Goat Anti-Rabbit, P0448, 0.03 ng/µl, both from Agilent Technologies LDA UK Ltd). All antibodies were diluted in 0.5% bovine serum albumin (BSA)/PBS. Washes between each step were carried out in triplicate, for 15 min each, with PBS-Tween (0.1%). Following addition of the chemiluminescent HRP substrate (Millipore, WBKL30500) membranes were imaged using Bio-Rad Chemidoc Touch Imaging System. Analysis was carried out using BioRad ImageLab software (version 5.2.1) using sequential exposures to avoid saturation artifacts. Figures for unprocessed blots are included in Supplementary information Fig. S4 and Fig. S5 with highlighted regions (in red boxes) corresponding to the data reported in the main manuscript figures."}, "[2]": {"system": "HEK293T cells", "test": "Cell viability MTS assay", "format": "cell-based, human", "conditions": "100 µM; 72 h; vs DMSO control", "protocol": "(§1) Cell viability was assessed using CellTiter® 96 Aqueous One Solution Cell Proliferation Assay (Promega, G3582) following the manufacturer’s protocol. The assay is based on the reduction of [3-(4,5-dimethylthiazol-2-yl)-5-(3-carboxymethoxyphenyl)-2-(4-sulfophenyl)-2 H-tetrazolium] (MTS) and phenazine ethosulfate into formazan. Compounds 2 and 4b, GM6001 (Merck, 364206) (10–100 µM), or DMSO control were incubated in 48-well Nunc™ plates (Thermo Fisher Scientific,150687) with HEK293T cells, human non-OA chondrocytes, porcine cartilage explants, or human OA cartilage explants for 72 h. At least 3 independent experiments were carried out with 3 technical replicates each. For experiments involving human samples, independent experiments were carried out on 3 different donors. Absorbance at 490 nm was measured on a SpectraMax i3x Multi-Mode Platform (Molecular Devices). Cell viability was normalized to DMSO controls."}, "[3]": {"system": "human non-OA chondrocytes", "test": "Cell viability MTS assay", "format": "cell-based", "conditions": "72 h, vs DMSO control", "protocol": "Non-OA human chondrocytes were isolated from knee cartilage tissues obtained from the Stanmore BioBank, Institute of Orthopaedics, Royal National Orthopaedic Hospital, Stanmore, UK, from 3 donors following informed consent and approval by the Royal Veterinary College Ethics and Welfare Committee (Institutional approval URN 2012 0048 H) as before.\nas §1"}, "[4]": {"system": "human OA cartilage explants", "test": "Cell viability MTS assay", "format": "cell-based", "conditions": "100 µM; 72 h; vs DMSO control", "protocol": "Human OA cartilage was obtained from Clatterbridge Hospital, Wirral, UK, following total knee arthroplasty procedures with informed patient consent in full compliance with national and institutional ethical requirements, the United Kingdom Human Tissue Act, and the Declaration of Helsinki (REC 18/WA/0344). Explants (~ 36 mm^3, ~ 40 mg wet volume/weight) from each of 3 donors were placed in one well of a 48-well plate and allowed to rest for 24 h in 1 ml of DMEM containing 10% FBS before use. The medium was replaced, and the cartilage was rested for a further 24 h in 1 ml DMEM at 37 °C before assays.\nas §1, with “For experiments involving human samples, independent experiments were carried out on 3 different donors.” left out, “Cell viability was normalized to DMSO controls.” left out"}, "[5]": {"system": "A2780-Rab25", "test": "OC cell proliferation (DRAQ5 cell numbers)", "format": "cell-based", "conditions": "24 h", "protocol": "A2780-Rab25 (3,000 cells per well) were seeded in a 96-well plate and incubated with compound 2 (10 µM and 50 µM) or DMSO control for 24 h. Cells were fixed with 4% paraformaldehyde and stained with 5 µM DRAQ5 in PBS for 1 h at room temperature with gentle rocking. Cells were washed twice with PBS for 30 min and kept in PBS for imaging. […] was detected by the 700 nm channel (200 μm resolution) of a Licor Odyssey Sa instrument. The signal intensity (total intensity minus total background) of each well was quantified in Image Studio Lite software."}}, "data": [{"smiles": "CCC(C)N(Cc1cn(CCCO[C@@H]2O[C@H](CO)[C@@H](O[C@@H]3O[C@H](CO)[C@H](O)[C@H](O)[C@H]3O)[C@H](O)[C@H]2NC(C)=O)nn1)S(=O)(=O)c1ccc(-c2ccccc2)cc1", "note": "(stereo partly drawn) [compound 2, N-((2R,3R,4R,5 S,6R)-2-(3-(4-((N-(sec-butyl)-[1,1’-biphenyl]-4-sulfonamido)methyl)-1H-1,2,3-triazol-1-yl)propoxy)-4-hydroxy-6-(hydroxymethyl)-5-(((2 S,3R,4 S,5R,6R)-3,4,5-trihydroxy-6-(hydroxymethyl)tetrahydro-2 H-pyran-2-yl)oxy)tetrahydro-2 H-pyran-3-yl)acetamide]", "values": [{"measurement": "inhibition at 10 µM", "setting": "[1]; 10 µM", "result": 53, "unit": "%"}, {"measurement": "inhibition at 100 µM", "setting": "[1]; 100 µM", "result": 80, "unit": "%"}, {"measurement": "inhibition of cell viability", "setting": "[2]", "result": "Neither 2, nor the broad-spectrum zinc-chelating metalloproteinase inhibitor GM6001[40] had an effect on cell viability"}, {"measurement": "inhibition of cell viability", "setting": "[3]; 50 µM", "result": "No significant effect"}, {"measurement": "inhibition of cell viability", "setting": "[3]; 100 µM", "result": "No significant effect"}, {"measurement": "effect on cell viability", "setting": "[4]", "result": "no effect on cell viability was observed"}, {"measurement": "A2780-Rab25 cell numbers compared to DMSO control", "setting": "[5]; 10 µM", "result": "did not detect any significant difference"}, {"measurement": "A2780-Rab25 cell numbers compared to DMSO control", "setting": "[5]; 50 µM", "result": "did not detect any significant difference"}]}]}
